Results taken from PubChem BioAssay AID2060510 (Molecular Pharmacology Branch, DTP, NCI, 2025).

Test system: 439559-082-T-J2-PDC spheroids viability
Assay: Anticancer human tumor 439559-082-T-J2-PDC patient-derived colon adenocarcinoma cell line growth inhibition [GQUAD]
Details: for IC50: curve of first compound; for viability, T/C: stronger effect = lower value; active means viability on the fitted dose curve at most 10% of control; inactive means the rest
Summary of the method: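 Tumor cells were grown as complex spheroids with HUVEC endothelial cells and mesenchymal stem cells as stroma. G-quadruplex stabilizers were combined with targeted agents over half-log dilutions from near the clinical Cmax, or from 10 microM.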

[1] = second compound 0.0316 µM, first compound 0.0316 µM
[2] = second compound 0.0316 µM, first compound 0.1 µM
[3] = second compound 0.0316 µM, first compound 0.316 µM
[4] = second compound 0.0316 µM, first compound 1 µM
[5] = second compound 0.0316 µM, first compound 3.16 µM
[6] = second compound 0.0316 µM, first compound 10 µM
[7] = second compound 0.1 µM, first compound 0.0316 µM
[8] = second compound 0.1 µM, first compound 0.1 µM
[9] = second compound 0.1 µM, first compound 0.316 µM
[10] = second compound 0.1 µM, first compound 1 µM
[11] = second compound 0.1 µM, first compound 3.16 µM
[12] = second compound 0.1 µM, first compound 10 µM
[13] = second compound 0.316 µM, first compound 0.0316 µM
[14] = second compound 0.316 µM, first compound 0.1 µM
[15] = second compound 0.316 µM, first compound 0.316 µM
[16] = second compound 0.316 µM, first compound 1 µM
[17] = second compound 0.316 µM, first compound 3.16 µM
[18] = second compound 0.316 µM, first compound 10 µM
[19] = second compound 1 µM, first compound 0.0316 µM
[20] = second compound 1 µM, first compound 0.1 µM
[21] = second compound 1 µM, first compound 0.316 µM
[22] = second compound 1 µM, first compound 1 µM
[23] = second compound 1 µM, first compound 3.16 µM
[24] = second compound 1 µM, first compound 10 µM
[25] = second compound 3.16 µM, first compound 0.0316 µM
[26] = second compound 3.16 µM, first compound 0.1 µM
[27] = second compound 3.16 µM, first compound 0.316 µM
[28] = second compound 3.16 µM, first compound 1 µM
[29] = second compound 3.16 µM, first compound 3.16 µM
[30] = second compound 3.16 µM, first compound 10 µM
[31] = second compound 10 µM, first compound 0.0316 µM
[32] = second compound 10 µM, first compound 0.1 µM
[33] = second compound 10 µM, first compound 0.316 µM
[34] = second compound 10 µM, first compound 1 µM
[35] = second compound 10 µM, first compound 3.16 µM
[36] = second compound 10 µM, first compound 10 µM
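Further: spheroids exposed to the agents for 7 days before readout.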
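Wherever viability, T/C is given: percent of luminescence signal in DMSO vehicle wells taken as 100% viability.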

CC1COCCN1c1cc(C2(O)CC3CCC(C2)O3)c2cnn(-c3ccn[nH]3)c2n1 (stereo unspecified) + CN(C)c1ccc(Nc2c3ccc(NC(=O)CCN4CCCC4)cc3nc3cc(NC(=O)CCN4CCCC4)ccc23)cc1
inactive: viability, T/C [1] 96.5% | viability, T/C [2] 72.1% | viability, T/C [3] 68.3% | viability, T/C [4] 49.8% | viability, T/C [5] 35.8% | viability, T/C [6] 25.6% | viability, T/C [7] 103% | viability, T/C [8] 78.2% | viability, T/C [9] 74.1% | viability, T/C [10] 52.6% | viability, T/C [11] 33.9% | viability, T/C [12] 30.4% | viability, T/C [13] 94.8% | viability, T/C [14] 82.3% | viability, T/C [15] 64.4% | viability, T/C [16] 50.3% | viability, T/C [17] 37% | viability, T/C [18] 30.3% | viability, T/C [19] 80.6% | viability, T/C [20] 86.2% | viability, T/C [21] 75.7% | viability, T/C [22] 52% | viability, T/C [23] 36.6% | viability, T/C [24] 32.4% | viability, T/C [25] 85.6% | viability, T/C [26] 87.5% | viability, T/C [27] 75.5% | viability, T/C [28] 49% | viability, T/C [29] 39.9% | viability, T/C [30] 28.9% | viability, T/C [31] 94.9% | viability, T/C [32] 76.9% | viability, T/C [33] 79.1% | viability, T/C [34] 46% | viability, T/C [35] 35% | viability, T/C [36] 25.4%
1080 nM: IC50 (second compound 3.16 µM)
979 nM: IC50 (second compound 0.0316 µM)
999 nM: IC50 (second compound 10 µM)
1160 nM: IC50 (second compound 1 µM)
1200 nM: IC50 (second compound 0.1 µM)
959 nM: IC50 (second compound 0.316 µM)

COc1cc(C2c3cc4c(cc3C(OC3OC5COC(C)OC5C(O)C3O)C3COC(=O)C23)OCO4)cc(OC)c1O (stereo unspecified) + Cc1[nH]c2ccc(F)cc2c1-c1nc2c3cccnc3c3ncccc3c2[nH]1
> 10000 nM: IC50 (second compound 0.0316 µM) | IC50 (second compound 0.1 µM) | IC50 (second compound 0.316 µM) | IC50 (second compound 1 µM) | IC50 (second compound 3.16 µM) | IC50 (second compound 10 µM)
inactive: viability, T/C [1] 98.1% | viability, T/C [2] 99.7% | viability, T/C [3] 97.9% | viability, T/C [4] 87.8% | viability, T/C [5] 86.5% | viability, T/C [6] 66.1% | viability, T/C [7] 102% | viability, T/C [8] 98.2% | viability, T/C [9] 97.5% | viability, T/C [10] 87.1% | viability, T/C [11] 96.9% | viability, T/C [12] 64.9% | viability, T/C [13] 108% | viability, T/C [14] 101% | viability, T/C [15] 103% | viability, T/C [16] 94.2% | viability, T/C [17] 85.6% | viability, T/C [18] 65.3% | viability, T/C [19] 98.2% | viability, T/C [20] 87.8% | viability, T/C [21] 89.4% | viability, T/C [22] 83.8% | viability, T/C [23] 86.7% | viability, T/C [24] 58.9% | viability, T/C [25] 76.5% | viability, T/C [26] 85.2% | viability, T/C [27] 84.1% | viability, T/C [28] 73.5% | viability, T/C [29] 79.9% | viability, T/C [30] 56.7% | viability, T/C [31] 88.5% | viability, T/C [32] 85.3% | viability, T/C [33] 83.8% | viability, T/C [34] 90.6% | viability, T/C [35] 78.5% | viability, T/C [36] 57.2%

CC(=O)O[C@H]1C(=O)[C@@]2(C)[C@H]([C@H](OC(=O)c3ccccc3)[C@]3(O)C[C@H](OC(=O)[C@H](O)[C@@H](NC(=O)c4ccccc4)c4ccccc4)C(C)=C1C3(C)C)[C@]1(OC(C)=O)CO[C@@H]1C[C@@H]2O + Cc1[nH]c2ccc(F)cc2c1-c1nc2c3cccnc3c3ncccc3c2[nH]1
436 nM: IC50 (second compound 0.316 µM)
inactive: viability, T/C [1] 103% | viability, T/C [2] 81.4% | viability, T/C [3] 57.7% | viability, T/C [7] 99% | viability, T/C [8] 96.2% | viability, T/C [9] 63.1% | viability, T/C [13] 102% | viability, T/C [14] 87.5% | viability, T/C [15] 67.7% | viability, T/C [19] 90.2% | viability, T/C [20] 82.3% | viability, T/C [21] 61.9% | viability, T/C [25] 61.7% | viability, T/C [26] 76.5% | viability, T/C [27] 58.6% | viability, T/C [31] 88.9% | viability, T/C [32] 63.2% | viability, T/C [33] 55.9% | viability, T/C [34] 9.43%
298 nM: IC50 (second compound 10 µM)
343 nM: IC50 (second compound 0.0316 µM)
385 nM: IC50 (second compound 3.16 µM)
active: viability, T/C [4] 4.13% | viability, T/C [5] 0.17% | viability, T/C [6] 0.27% | viability, T/C [10] 2.41% | viability, T/C [11] 0.19% | viability, T/C [12] 0.28% | viability, T/C [16] 5.02% | viability, T/C [17] 0.14% | viability, T/C [18] 0.29% | viability, T/C [22] 6.01% | viability, T/C [23] 0.1% | viability, T/C [24] 0.41% | viability, T/C [28] 6.91% | viability, T/C [29] 0.18% | viability, T/C [30] 0.37% | viability, T/C [35] 0.43% | viability, T/C [36] 0.5%
406 nM: IC50 (second compound 0.1 µM)
402 nM: IC50 (second compound 1 µM)
